How the values were obtained:
[1] = in vivo; cited from earlier work
enzyme system of liver = conditions: cited from earlier work
[2] = Ethanolic narcosis period test (Table 1, 1 hour oral pretreatment); type: in vivo, Hann.-Wistar rats; conditions: 1 hour before ethanol i.p., n=10, control = 100 ± 7.9
Protocol: (§1) The effect of the compounds according to the invention on ethanolic narcosis period was tested on Hann.-Wistar rats of both sexes, each weighing 160 to 180 g. The animals were fasted for 16 hours prior to treatment and tests were performed on groups of 10. The animals were treated with various doses of the test compounds orally. One hour after treatment the rats were administered a […]. dose of ethanol intraperitoneally, and their narcosis period was measured from the elapse of the righting reflex until a spontaneous correction of the body position. The mean value of the narcosis period and the percentage difference related to the control were calculated. The results are given in Table 1. x±S.E.=mean value±standard error n=number of animals The control group was treated with placebo and a 3.5 mg./kg. dose of ethanol. Narcosis period of the control: 87.4±6.91 (x±S.E.) min.

[3] = Acute toxicity, single oral dose, 14 days observation; type: in vivo
Protocol: The acute toxicity of the compound A was determined on Hann.-Wistar rats of both sexes, each weighing 160 to 180 g. in groups of 10. The animals were administered a single 2000 mg./kg. oral dose of the test compound, and then observed for 14 days.

[4] = Ethanolic narcosis period as a function of the pretreatment period (Table 2); type: in vivo, Hann.-Wistar rats; conditions: 40.0 mg./kg. oral, n=10
Protocol: as §1, with “calculated.” for “calculated. The results are given in Table 1. x±S.E.=mean value±standard error n=number of animals The control group was treated with placebo and a 3.5 mg./kg. dose of ethanol. Narcosis period of the control: 87.4±6.91 (x±S.E.) min.”
There was examined the effect of a 40.0 mg./kg. dose of the above test compound on the ethanolic narcosis period as a function of the pretreatment-period, following the test procedure described above.

[5] = cited from earlier work
[6] = in vivo; cited from earlier work; remark: listed apart in the source

Cn1c(=O)c2c(ncn2C)n(C)c1=O [caffeine]
Motoric incoordination (ataxia) [1]: prolong the motoric incoordination (ataxia) | Narcotizing effect of alcohol [1]: decrease the narcotizing effect of alcohol

CCC(O)(c1ccccc1)c1cc(C)ccc1C (stereo not drawn) [2,5-dimethyl-α-ethyl-benzhydrol]
Inducing effect on the enzyme system of liver (enzyme system of liver): shows a similar activity

CCC(O)(c1ccccc1)c1cccc(C(F)(F)F)c1 (stereo not drawn) [3-trifluoromethyl-α-ethyl-benzhydrol]
Inducing effect on the enzyme system of liver (enzyme system of liver): has an inducing effect on the enzyme system of liver

CCC(O)(c1ccc(O)cc1)c1cccc(C(F)(F)F)c1 (stereo not drawn) [A, 3-trifluoromethyl-4'-hydroxy-α-ethyl-benzhydrol]
Ethanolic narcosis period (Control ± S.E. %) ([2]; 40.0 mg./kg. oral): 53 ± 5.8% | Ethanolic narcosis period (Control ± S.E. %) ([2]; 80.0 mg./kg. oral): 62 ± 5.1% | Toxicity ([3]; oral, single dose): toxicity is low | LD50 at 336 h ([3]; rat, in vivo, oral, single dose, 14 days observation): > 2000 mg/kg | mortality at 336 h ([3]; rat, in vivo, single 2000 mg./kg. oral dose, 14 days observation, read-out: Animals perished): 40% | Narcosis period, treated ([4]; pretreatment 0.5 hours, control 87.2 ± 6.23): 54.1 ± 3.49 | Narcosis period, % difference from the control ([4]; pretreatment 0.5 hours): -38% | Narcosis period, treated ([4]; pretreatment 1.0 hours, control 85.1 ± 4.91): 45.1 ± 2.30 | Narcosis period, % difference from the control ([4]; pretreatment 1.0 hours): -47% | Narcosis period, treated ([4]; pretreatment 2.0 hours, control 85.5 ± 9.97): 29.9 ± 5.08 | Narcosis period, % difference from the control ([4]; pretreatment 2.0 hours): -65% | Narcosis period, treated ([4]; pretreatment 3.0 hours, control 83.4 ± 8.46): 75.1 ± 4.51 | Narcosis period, % difference from the control ([4]; pretreatment 3.0 hours): -10%

CC(N)(Cc1ccc(O)cc1)C(=O)O (stereo not drawn) [α-Methyl-p-tyrosine]
Effect on locomotoric hyperactivity ([5]; mice, dose range in which spontaneous locomotor activity is decreased): normalizing effect | Spontaneous locomotor activity ([5]; same dose range as normalizing effect on hyperactivity): decreases the spontaneous locomotor activity

CC(N)Cc1ccccc1 (stereo not shown) [amphetamine]
Motoric incoordination (ataxia) [1]: prolong the motoric incoordination (ataxia) | Narcotizing effect of alcohol [1]: decrease the narcotizing effect of alcohol

N[C@@H](CS)C(=O)O [L-cysteine, reference compound]
Ethanolic narcosis period (Control ± S.E. %) ([2]; 500.0 mg./kg. oral): 63 ± 4.2% | Ethanolic narcosis period (Control ± S.E. %) ([2]; 1000.0 mg./kg. oral): 66 ± 5.9% | Alcoholic intoxication [6]: shortened | Alcoholic narcosis [6]: shortened

From patent US4593047A, “Process for the preparation of 3-trifluoromethyl-and 2,5-dimethyl-4'-hdyroxy-α-ethyl-benzhydrol, and pharmaceutical compositions containing them” (Richter Gedeon Vegyeszeti Cyar RT, priority 1982, dated 1986)
